Data: patent publication US12048699B2, “Cancer treatment methods based on TP53 mutation status and hypermutation” (TAKEDA PHARMACEUTICAL COMPANY LIMITED, priority 2018, dated 2024)

Tests used:
[1] = test system: human primary tumor xenograft models; assay: phase 2-like preclinical study in human primary tumor xenograft (PDX) models, % ΔTGI response vs mutation status; type: in vivo, Balb/c nude mice; details: 77 PDX models, crystalline form A of Compound 1 hemihydrate, 60 mg/kg, Bid, po, 21 days, 3 days on 4 days off
Text: Compound 1 is an investigational drug under clinical development for cancer treatment. Compound 1 achieves anti-tumor effects by inhibiting Cdc7 kinase, which is involved in DNA replication and repair. Predictive biomarker identification was investigated using data derived from a phase 2-like preclinical study, that is human primary tumor xenograft models using Balb/c nude mice ([…], female, 6-8 weeks old, 18-22 g). For each model, 6 tumor bearing mice were randomized into 2 groups. Tumor fragments from seed mice inoculated with selected PDX tumors were harvested and used for inoculation into Balb/c nude mice. Each mouse was inoculated subcutaneously at the right flank with one tumor fragment (2-3 mm in diameter). The treatments were started when mean tumor size reached approximately 200-250 mm^3. Mice were dosed orally with either vehicle or Compound 1 (crystalline form A of Compound 1 hemihydrate, 60 mg/kg, Bid, po, 21 days, 3 days on 4 days off). TP53 mutation status and hypermutation status as measured by microsatellite instability/stability (MSI/MSS) status were identified as predictive biomarkers for cancer treatment with Compound 1.
Whole exome sequencing (WES) and RNA sequencing (RNASeq) were done for 92 xenograft models whose cancer types are colon (n=40), pancreas (n=24), non-small cell lung (n=23), and ovary cancer (n=5).
In this study, % ΔTGI (percent delta tumor growth inhibition) was used and its mathematical definition is as follows.
In the above equation, Tt and T0 represent the sizes of tumor in treatment at time t and 0 and similarly Ct and C0 mean the sizes of tumor in control (vehicle) at the same time points t and 0. Therefore, a large % ΔTGI indicates a higher degree of tumor growth inhibition in treatment than in vehicle.
Binary response was inferred by categorizing % ΔTGI, so that samples were classified as responders with high % ΔTGI and non-responders with low % ΔTGI. Chi-square test was run to evaluate the potential association between the class labels (responder vs. non-responder) and mutational status (MUT vs. WT). […]

[2] = test system: human hepatocytes; assay: metabolism in human hepatocytes; type: in vitro ADME; details: metabolite structures shown in drawing 7

## Cc1[nH]ncc1-c1cc2nc([C@@H]3CC4CCN3CC4)[nH]c(=O)c2s1 [Compound 1, 2-[(2S)-1-azabicyclo[2.2.2]oct-2-yl]-6-(3-methyl-1H-pyrazol-4-yl)thieno[3,2-d]pyrimidin-4(3H)-one]
[1]; Chi-square test / decision tree
  association of TP53 mutation with response (% ΔTGI, responder vs. non-responder): most significantly associated with response
[1]; decision tree
  association of CHD family genes mutation with response (% ΔTGI, responder vs. non-responder): associated with non-response
  association of hypermutation with response (% ΔTGI, responder vs. non-responder): associated with non-response
[2]
  metabolism to metabolites: can be metabolized to compounds of the following structures
